Here are results for three compounds from US20100197787A1, “Composition for Prevention of Hypoglycemic Condition” (priority 2005, published 2010).

Test [1] concerns rat brain cells. As to the kind of experiment: Promoting activity of intravenously administered BCAA in incorporation of carbohydrate into the brain (2DG-6P amount). Type of test: in vivo. Particulars: at 24 hours after intravenous administration, 1.5% by mass in 5% by mass glucose, 10 mL/kg/hr, male SD rats, versus control group (5% glucose) and mixed amino acid group, FIG. 2. The text has this: Control group: A solution prepared by dissolving glucose at a concentration of 5% by mass in purified water was used as the test solution for the control group. Mixed amino acid group: A solution prepared by dissolving […] (registered trademark, manufactured by Otsuka Pharmaceutical Co., Ltd.) at a concentration of 1.5% by mass in purified water containing 5% by mass glucose was used as the test solution for the mixed amino acid group. Leucine group: A solution prepared by dissolving L-leucine at a concentration of 1.5% by mass in purified water containing 5% by mass glucose was used as the test solution for the leucine group. Isoleucine group: A solution prepared by dissolving L-isoleucine at a concentration of 1.5% by mass in purified water containing 5% by mass glucose was used as the test solution for the isoleucine group. Valine group: A solution prepared by dissolving L-valine at a concentration of 1.5% by mass in purified water containing 5% by mass glucose was used as the test solution for the valine group. Male […] SD rats (Nippon Clare) were kept for 14 days and given free access to food (purified feed: AIN-93G manufactured by Nippon Nosan Kogyo Co., Ltd.) and water. At the age of 8-week-old, the rats were grouped depending on the body weight into 5 groups (control group, mixed amino acid group, leucine group, isoleucine group and valine group). After the grouping, under ether anesthesia, the cervical region of each rat was opened, and a catheter was inserted into the jugular vein. The other end of the catheter was passed subcutaneously, exposed on the back and connected via a harness to, and fixed to, a swivel. Then each rat was housed in a separate metabolism cage. […] The separated plasma was measured for its 2DG level and blood glucose level in the same manner as in the test method in Test Example 1. […] After blood removal, the brain tissue was removed, mixed with 1N NaOH that was 4 parts of the brain tissue by weight, and then heated in a water bath at 60° C. for 1 hour to lyse the brain tissue. To the brain tissue lysate solution, 1N HCl in the same amount as that of 1N NaOH was added, thereby neutralizing the solution to give a neutralized homogenate of the brain tissue. The amount of 2DG-6P in the neutralized homogenate was measured in the same manner as in the test method in Test Example 1, to determine the amount of the carbohydrate incorporated into the brain cells. In statistical processing, after analysis of variance, Dunnett's multiple comparison with the control was carried out to test significant difference.

Test [2] relates to rat brain cells. As to the kind of experiment: Promoting activity of orally administered branched amino acid in incorporation of carbohydrate into the brain (2DG-6P amount). Type of test: in vivo. The note with it: 1 hour after oral administration of suspension, 0.45 g/15 mL/kg BW, male Wistar rats, versus control group (physiological saline), FIG. 1. The protocol:
Leucine group: An L-leucine suspension prepared by adding 3 g L-leucine to 100 mL physiological saline and suspending it with a homogenizer was used as a test solution of leucine group. Isoleucine group: An L-isoleucine suspension prepared by adding 3 g L-isoleucine to 100 mL physiological saline and suspending it with a homogenizer was used as a test solution of isoleucine group. Male 6-week-old Wistar rats (Charles River Japan, Inc.) were kept for 14 days and given free access to food (purified feed: AIN-93G manufactured by Nippon Nosan Kogyo Co., Ltd.) and water. At the age of 8-week-old, the rats were grouped depending on the body weight into 3 groups (control group, leucine group and isoleucine group). After the grouping, under ether anesthesia, the cervical region of each rat was opened, and a catheter was inserted into the jugular vein. The other end of the catheter was passed subcutaneously, exposed on the back and connected via a harness to, and fixed to, a swivel. Then each rat was housed in a separate metabolism cage. Physiological saline was administered via the catheter continuously at a rate of 1 mL/hr/body to the rat. […] 20 μL of the plasma was placed in a vial for liquid scintillation counter measurement, and then 5 mL scintillator was added to and mixed with the plasma, which was then measured for its tritium level (count) with a liquid scintillation counter to determine the amount of 2DG. The blood glucose level was measured by a glucose oxidase dye method. […] 900 μL of the separated supernatant was placed in a vial for liquid scintillation counter measurement, and then 5 mL scintillator was added to and mixed with the supernatant, which was then measured for its tritium level (count) with a liquid scintillation counter to determine the amount of 2DG. […] 900 μL of the separated supernatant was placed in a vial for liquid scintillation counter measurement, and then 10 mL scintillator was added to and mixed with the supernatant, which was then measured for its tritium level (count) with a liquid scintillation counter to determine the amount of 2DG and 2DG-6P. […]

Regarding `CC(C)C[C@H](N)C(=O)O` [L-leucine], the “amount of the carbohydrate incorporated into brain cells (amount of 2DG-6P)” value (“amount” below) is “higher than that of the control group and of the mixed amino acid group” in test [1]; “higher than that of the control group” in test [2].
Regarding `CC[C@H](C)[C@H](N)C(=O)O` [L-isoleucine], the “amount” value was “higher than that of the control group and of the mixed amino acid group” in test [1]; “tendency to promote incorporation of the carbohydrate into brain cells was recognized” in test [1] (listed as isoleucine); “higher than that of the control group” in test [2]; “significantly promoted” in test [2] (listed as isoleucine).
As for `CC(C)[C@H](N)C(=O)O` [L-valine], the “amount” value in test [1] was “higher than that of the control group and of the mixed amino acid group”; in test [1] (listed as valine), “tendency to promote incorporation of the carbohydrate into brain cells was recognized”.
